Measurements as given in patent publication US20200085776A1, “Methods of Reducing C-Reactive Protein and/or Treating Cardiovascular Disease” (CARDAX, INC., priority 2018, published 2020).

Test system: C-reactive protein (CRP)
Test: CRP (hs-CRP) in blood, CHASE clinical study
Assay type: in vivo, human
Details: Group X 12 mg BID
Source text: This is a two-part study comprising Part I and Part II. Following screening, Part I consists of a randomized, double-blind, placebo controlled dosing period of up to 12 weeks. The study shall be conducted at one or more study sites in Hawaii. Approximately 360 subjects qualified after completion of screening procedures shall be randomized in a 1:1:1 ratio to one of three treatment groups, per Table 1.
The Part I 12-week double-blind dosing period commences with V2, including randomization and first dose of study product, and continues with study visits at Week 1-2 (V3), Week 4 (V4), Week 8 (V5), and Week 12 (V6). V6 procedures will conclude Part I.
Blood shall be obtained at each visit for CRP. The screening specimen shall be processed at the local lab and reported to the study staff for eligibility determination; CRP samples at V7 and V8 may also be processed locally and reported directly to study staff. Samples for CRP from V2 through V6 may be batched, processed, and reported as specified in the Laboratory Manual.
At each these visits, blood was obtained for measurement of CRP, among other parameters. Table 7A provides a summary of the CRP measurements (mg/L) at each visit and Table 7B provides a summary of the differences of CRP levels between V2 and V6.

[1] = V1 screening, subjects with baseline level greater than 2.0
[2] = V2 baseline pre-dose, all subjects
[3] = V2 baseline pre-dose, subjects not taking a hypertension agent
[4] = V2 baseline pre-dose, subjects not taking any cardiac therapeutic agent
[5] = V2 baseline pre-dose, subjects not taking statins
[6] = V2 baseline pre-dose, subjects taking an anti-diabetic agent
[7] = V2 baseline pre-dose, subjects with CAD
[8] = V2 baseline pre-dose, subjects with DM2, hypertension and hyperlipidemia but not CAD
[9] = V2 baseline pre-dose, subjects with Diabetes Mellitus Type II
[10] = V2 baseline pre-dose, subjects with baseline level greater than 2.0
[11] = V2 baseline pre-dose, subjects with hyperlipidemia
[12] = V3 Week 1-2, subjects with baseline level greater than 2.0
[13] = V4 Week 4, subjects with baseline level greater than 2.0
[14] = V5 Week 8, subjects with baseline level greater than 2.0
[15] = V6 Week 12, subjects not taking a hypertension agent
[16] = V6 Week 12, subjects not taking any cardiac therapeutic agent
[17] = V6 Week 12, subjects not taking statins
[18] = V6 Week 12, subjects taking an anti-diabetic agent

CC1=C(/C=C/C(C)=C/C=C/C(C)=C/C=C/C=C(C)/C=C/C=C(C)/C=C/C2=C(C)C(=O)C(O)CC2(C)C)C(C)(C)CC(O)C1=O (stereo not drawn) [Astaxanthin, astaxanthin]
CRP Max (V1 screening, all subjects): 15.96 mg/L
CRP Mean (SD) (V1 screening, all subjects): 5.43 (3.91) mg/L
CRP Median (V1 screening, all subjects): 3.95 mg/L
CRP Min (V1 screening, all subjects): 2.87 mg/L
CRP Max [1]: 15.96 mg/L
CRP Mean (SD) [1]: 5.64 (4.06) mg/L
CRP Median [1]: 3.98 mg/L
CRP Min [1]: 2.87 mg/L
CRP Max [2]: 17.86 mg/L
CRP Mean (SD) [2]: 5.52 (4.80) mg/L
CRP Median [2]: 3.64 mg/L
CRP Min [2]: 1.39 mg/L
CRP Max [3]: 3.64, 3.64 mg/L
CRP Mean (SD) [3]: 3.64 mg/L
CRP Median [3]: 3.64 mg/L
CRP Min [3]: 3.64, 3.64 mg/L
CRP Max [4]: 17.86 mg/L
CRP Mean (SD) [4]: 6.81 (6.86) mg/L
CRP Median [4]: 3.64 mg/L
CRP Min [4]: 1.39 mg/L
CRP Max [5]: 8.61 mg/L
CRP Mean (SD) [5]: 4.04 (2.48) mg/L
CRP Median [5]: 3.12 mg/L
CRP Min [5]: 2.16 mg/L
CRP Max [6]: 17.86 mg/L
CRP Mean (SD) [6]: 7.52 (5.87) mg/L
CRP Median [6]: 6.78 mg/L
CRP Min [6]: 1.39 mg/L
CRP Max [7]: 8.61, 8.61 mg/L
CRP Mean (SD) [7]: 8.61 mg/L
CRP Median [7]: 8.61 mg/L
CRP Min [7]: 8.61, 8.61 mg/L
CRP Max [8]: 17.86 mg/L
CRP Mean (SD) [8]: 7.30 (6.54) mg/L
CRP Median [8]: 4.94 mg/L
CRP Min [8]: 1.39 mg/L
CRP Max [9]: 17.86 mg/L
CRP Mean (SD) [9]: 7.52 (5.87) mg/L
CRP Median [9]: 6.78 mg/L
CRP Min [9]: 1.39 mg/L
CRP Max [10]: 17.86 mg/L
CRP Mean (SD) [10]: 5.93 (4.85) mg/L
CRP Median [10]: 4.29 mg/L
CRP Min [10]: 2.16 mg/L
CRP Max [11]: 17.86 mg/L
CRP Mean (SD) [11]: 6.71 (5.19) mg/L
CRP Median [11]: 4.95 mg/L
CRP Min [11]: 1.39 mg/L
CRP Max (V3 Week 1-2, all subjects): 6.72 mg/L
CRP Mean (SD) (V3 Week 1-2, all subjects): 3.72 (2.06) mg/L
CRP Median (V3 Week 1-2, all subjects): 3.44 mg/L
CRP Min (V3 Week 1-2, all subjects): 0.44 mg/L
CRP Max [12]: 6.72 mg/L
CRP Mean (SD) [12]: 3.97 (1.97) mg/L
CRP Median [12]: 3.55 mg/L
CRP Min [12]: 0.44 mg/L
CRP Max (V4 Week 4, all subjects): 15.83 mg/L
CRP Mean (SD) (V4 Week 4, all subjects): 3.98 (4.24) mg/L
CRP Median (V4 Week 4, all subjects): 2.56 mg/L
CRP Min (V4 Week 4, all subjects): 0.56 mg/L
CRP Max [13]: 15.83 mg/L
CRP Mean (SD) [13]: 4.22 (4.39) mg/L
CRP Median [13]: 3.27 mg/L
CRP Min [13]: 0.56 mg/L
CRP Max (V5 Week 8, all subjects): 18.24 mg/L
CRP Mean (SD) (V5 Week 8, all subjects): 4.90 (4.99) mg/L
CRP Median (V5 Week 8, all subjects): 3.71 mg/L
CRP Min (V5 Week 8, all subjects): 1.06 mg/L
CRP Max [14]: 18.24 mg/L
CRP Mean (SD) [14]: 5.29 (5.09) mg/L
CRP Median [14]: 4.08 mg/L
CRP Min [14]: 1.06 mg/L
CRP Max (V6 Week 12, all subjects): 11.04 mg/L
CRP Mean (SD) (V6 Week 12, all subjects): 3.45 (3.09) mg/L
CRP Median (V6 Week 12, all subjects): 2.70 mg/L
CRP Min (V6 Week 12, all subjects): 0.22 mg/L
CRP Max [15]: 2.70, 2.70 mg/L
CRP Mean (SD) [15]: 2.70 mg/L
CRP Median [15]: 2.70 mg/L
CRP Min [15]: 2.70, 2.70 mg/L
CRP Max [16]: 6.80 mg/L
CRP Mean (SD) [16]: 2.53 (2.56) mg/L
CRP Median [16]: 1.91 mg/L
CRP Min [16]: 0.22 mg/L
CRP Max [17]: 11.04 mg/L
CRP Mean (SD) [17]: 3.86 (3.78) mg/L
CRP Median [17]: 2.71 mg/L
CRP Min [17]: 0.22 mg/L
CRP Max [18]: 6.80 mg/L
CRP Mean (SD) [18]: 2.91 (2.07) mg/L
CRP Median [18]: 2.32 mg/L
CRP Min [18]: 1.02 mg/L
CRP Max (V6 Week 12, subjects with CAD): 2.72, 2.72 mg/L
CRP Mean (SD) (V6 Week 12, subjects with CAD): 2.72 mg/L
CRP Median (V6 Week 12, subjects with CAD): 2.72 mg/L
CRP Min (V6 Week 12, subjects with CAD): 2.72, 2.72 mg/L
